Test results from patent US7468379B2, “Inhibition of osteolytic lesions by SRC kinase inhibitors” (The Board of Regents of the University of Texas System, priority 2005, dated 2008).

Columns and labels:
[1] = test system: Src-dependent protein tyrosine phosphorylation; test: Src-dependent protein tyrosine phosphorylation; conditions: concentrations comparable to the Src enzyme IC50
[2] = test system: BMM cells; test: Cytotoxicity assay against BMM cells (crystal violet); format: cell-based
Procedure: (§1) Primary Bone Marrow Cell Culture. Primary bone marrow cells (BMM) from the tibiae and femora were aseptically dissected from Black 6 mice (C57BU6J) 8-12 weeks of age. Bone marrow was flushed out with incomplete D-MEM and centrifuged at 1200 rpm for 3 minutes and re-suspended in 5 ml incomplete D-MEM. BMM cells were incubated in 20 ml Red Blood Cell lysis buffer (8.3 g/NH4Cl, 1 g/l sodium bicarbonate, 0.4 g/l EDTA) at room temperature for 1-2 min. 25 ml of D-MEM supplemented with 10% FBS and 100 units/ml penicillin (complete D-MEM) were added and BMM cells were centrifuged for 3 min at 1200 rpm. BMM cells were then plated at 1.5−2×10^7 cells/10 cm dish with 10 ml of complete D-MEM and cultured for 24 h. Non-adherent cells were collected and centrifuged for 5 min at 1200 rpm and plated at a concentration of 2.5×10^4 cells/well in a 96 well dish for cytotoxicity assay, 2×10^4 cells/well in 48-well plates, or 5×10^3 cells/well in 96-well plates for osteoclast differentiation assays. Cells were cultured for 3 days in the presence of 10 ng/ml M-CSF before they were washed and used for further studies. For differentiation into osteoclasts 30-100 ng/ml RANKL is added. Media was supplemented after 2 days with fresh M-CSF and RANKL.
Cytotoxicity Assay. […] Absorbance was measured at 630 nm using an EL800 universal microplate reader from Bio-Tek Instruments Inc (Winooski, Vt.).

[3] = test system: BMM cells; test: In vitro RANKL-mediated osteoclast differentiation of BMM cells (TRAP staining); format: cell-based, Black 6 mice (C57BL/6J); conditions: M-CSF 10 ng/ml and RANKL 100 ng/ml, TRAP staining on day five
Text: (§2) FIGS. 1A-1C. […] M-CSF was replenished on day 3. Cells were fixed and stained for TRAP on day five, using a TRAP staining kit from Sigma-Aldrich (St. Louis, Mo.). (FIG. 1C) Data shown is representative of three experiments. Shown are photographs of representative fields from the different treatments using a 10× objective lens.
(§3) Primary Bone Marrow Cell Culture. Primary bone marrow cells (BMM) from the tibiae and femora were aseptically dissected from Black 6 mice (C57BU6J) 8-12 weeks of age. Bone marrow was flushed out with incomplete D-MEM and centrifuged at 1200 rpm for 3 minutes and re-suspended in 5 ml incomplete D-MEM. BMM cells were incubated in 20 ml Red Blood Cell lysis buffer (8.3 g/NH4Cl, 1 g/l sodium bicarbonate, 0.4 g/l EDTA) at room temperature for 1-2 min. 25 ml of D-MEM supplemented with 10% FBS and 100 units/ml penicillin (complete D-MEM) were added and BMM cells were centrifuged for 3 min at 1200 rpm. BMM cells were then plated at 1.5−2×10^7 cells/10 cm dish with 10 ml of complete D-MEM and cultured for 24 h. […]
In Vitro Osteoclast Differentiation. […] At day 5, cells were fixed and assessed for osteoclast differentiation by counting the total number of TRAP-positive, multinucleated (>3 nuclei), cells per well 96 h post-treatment using Leucocyte Acid phosphatase kit from Sigma-Aldrich (St. Louis, Mo.).

[4] = test system: BMM cells; test: Time-dependency of osteoclast differentiation inhibition in BMM cells; format: cell-based, Black 6 mice (C57BL/6J); conditions: 300 nM SKI606 added 12, 24 or 48 hours post-RANKL stimulation, TRAP at 96 h
Text: as §2, with “2A-2B. BMM cells respond to SKI606 in a time-dependent manner.” for “1A-1C.”, “2B)” for “1C)”, “Photographs” for “Shown”, “are” for “are photographs”
as §3
Time-dependency. […] Cells were then fixed, stained for TRAP and the numbers of osteoclasts were counted in each condition as described above.

[5] = test system: BMM cells; test: Bone-resorption assay (collagen I release from OsteoAssay plates); format: cell-based, Black 6 mice (C57BL/6J); conditions: 300 nM SKI606 with M-CSF and RANKL, compared to M-CSF and RANKL treatment, day 5
Procedure: as §1, with “Cells were cultured for 3 days in the presence of 10 ng/ml M-CSF before they were washed and used for further studies. For differentiation into osteoclasts 30-100 ng/ml RANKL is added. Media was supplemented after 2 days with fresh M-CSF and RANKL.” left out
Bone-Resorption Assay. […] Bone resorption was evaluated by measuring collagen I release from the OsteoAssay plate using Cross Laps for Culture ELISA kit from Nordic Bioscience Diagnostics (Portsmouth, Va.). Absorbance was measured at 450 nm using the reading at 650 nm as reference using an EL800 universal microplate reader from Bio-Tek Instruments Inc (Winooski, Vt.).

[6] = test system: RAW264.7 cells; test: RAW264.7 co-culture with MDA-MB-435 cells, osteoclastogenesis (TRAP); format: cell-based, mouse; conditions: 400 nM SKI606, 5 days
Procedure: (§4) FIGS. 4A-4B. […] (FIG. 4B) RAW264.7 cells (750 cells/well; 8 wells per treatment) were plated in 96 well plates in 10% conditioned media from MDA-MB-435 for 5 days. The cultures were fixed and stained for TRAP on day five, using a TRAP staining kit from Sigma-Aldrich (St. Louis, Mo.). Data shown is representative of five experiments.
RAW 264.7 Co-culture with MDA MB435 cells and Conditioned Media. For co-culture assays RAW264.7 (500 cells/well) were plated in 96 well plates and allowed to adhere for 12 hours. MDA-MB-435 were then introduced into the RAW264.7 culture at increasing density and incubated for 12 hours. […] Cells were then fixed, stained for TRAP and the numbers of osteoclasts were counted in each condition as described above.

[7] = test system: RAW264.7 cells; test: RAW264.7 with conditioned media from MDA-MB-435 cells, osteoclastogenesis (TRAP); format: cell-based, mouse; conditions: 10% conditioned media, 5 days
Procedure: as §4
For conditioned media the MDA-MB-435 cells were plated in 10 cm plates (1×10^6 cells/plate) and incubated for 36 hours. Media was then removed, centrifuged for 5 minutes at 2500 rpm and supernatants were isolated and placed in 4° C. until use. RAW264.7 cells (750 cells/well) were plated in 96 well plates and allowed to adhere for 12 hours. […] Cells were then fixed, stained for TRAP and the numbers of osteoclasts were counted in each condition as described above.

[8] = test system: MDA-MB-435 cells; test: MDA-MB-435 Bone Tumor Mouse Model (intratibial injection); format: in vivo, Female athymic NCr nude mice; conditions: SKI606 150 mg/kg oral gavage, 9 weeks; tumor-injected tibia sections
Procedure: Mice were divided into 3 treatment groups. […] (FIG. 5A) Weight of tumor was determined as follows: weight of injected leg-weight of non-injected hind leg of the same animal. (FIG. 5B) Areas of lysis were estimated from digital X-ray images; NIH Scion program was used to measure area of tibias and lytic areas, to calculate the ratio of pixels in lytic zones/pixels in tibia area. (FIG. 5C) The tumor-injected tibia was fixed and decalcified in EDTA, and sections stained for the presence of multinucleated osteoclasts (>3 nuclei) using TRAP staining kit from Sigma-Aldrich (St. Louis, Mo.).
X-ray images were taken at 35 days after injection, and also at 14-day intervals. […]
Intrabone Injections and Processing of Bone Tissue Samples. […] After 9 weeks, final X-ray images were taken, tumor weight calculated from the difference in weight of the tumor-bearing and non tumor-bearing leg of the same animal. […] Incidence of tumor in the tibia was determined by examination of histology sections. Weight of tumor was determined as follows: weight of injected leg-weight of non-injected hind leg of the same animal. […]
Mice were divided into three treatment groups and the incidence of tumor in the tibia was determined by examination of histology sections and weight of tumor.

## COc1cc(Nc2c(C#N)cnc3cc(OCCCN4CCN(C)CC4)c(OC)cc23)c(Cl)cc1Cl [SKI606, 4-((2,4-Dichloro-5-methoxyphenyl)amino)-6-methoxy-7-(3-(4-methyl-1-piperazinyl)propoxy)-3-quinolinecarbonitrile]
[1]
  inhibition of Src-dependent protein tyrosine phosphorylation: inhibits Src-dependent protein tyrosine phosphorylation at comparable concentrations
[2]; 600 nM SKI606, 72 h
  cells died (cytotoxicity to BMM cells): less than 10%
[2]; 72 h
  cytotoxicity to BMM cells: not cytotoxic
[3]
  effect on RANKL-mediated osteoclast differentiation in BMM: inhibitory effect on RANKL-mediated osteoclast differentiation in BMM in a dose dependent manner
[4]
  sensitivity of BMM cells to compound added after initiation of osteoclastogenesis: less sensitive
[5]
  decrease in collagen I release, an indicator of bone resorption: 3.7 fold
[6]
  inhibition of MDA-MB-435-induced osteoclastogenesis in RAW264.7 cells: significantly inhibited
[7]
  inhibition of osteoclastogenesis induced by conditioned media from MDA-MB-435 cells: able to inhibit
[8]
  TRAP-positive cells counted in sections of tumors: significantly fewer
